According to US11129870B2, “Compositions and methods for uncoupling TrkB receptor from PLC gamma 1 for the treatment of epilepsy and anxiety-like disorder” (DUKE UNIVERSITY, priority 2010, dated 2021):
Where no end group is shown, it is not given here. [ ]: non-standard residue; d: D form. pY = N[C@@H](Cc1ccc(OP(=O)(O)O)cc1)C(=O)O

Key:
[1] = system: kainic acid-induced status epilepticus; test: Status epilepticus induced by kainic acid infusion into amygdala, peptide given i.v. before KA; assay type: in vivo, mouse
Description: FIG. 15: Continuous limbic and tonic-clonic seizures (status epilepticus) were induced in awake, adult male WT C57BL/6 mice weighing 20-25 g by unilateral stereotaxic microinjection of 0.3 μg kainic acid (KA) in a volume of 0.2 μl PBS, pH 7.4, into the right basolateral amygdala nucleus. Seven to nine days prior to KA infusion, a guide cannula was placed in the right amygdala under pentobarbital anesthesia using the following stereotactic coordinates relative to bregma: AP, −0.94 mm; ML, −2.85 mm; and DV, −3.75 mm (AP, anterior-posterior; ML, medio-lateral; DV, dorso-ventral); additionally, a bipolar EEG recording electrode was implanted into contralateral dorsal hippocampus: AP, −2.00 mm; ML, 1.60 mm; and DV, −1.53 mm. Phospho-Tat-pTrkBY816 or Scr-phospho-Tat-pTrkBY816 was injected intravenously through tail vein before amygdala KA infusion. EEG and mice behavior were recorded by EEG recording device and video camera respectively for 45 min following infusion of KA. Design of the time course and dose response experiments are presented in top and bottom panels respectively.
As described previously, microinjection of kainic acid into the right amygdala of awake, adult mice reliably induces continuous limbic and clonic motor seizures accompanied by electrographic evidence of seizure activity as detected by EEG recording electrode in the contralateral hippocampus. Status epilepticus is terminated by intraperitoneal administration of diazepam 45 minutes following infusion of kainic acid.
We asked whether intravenous infusion of Tat-pTrkBY816 via tail vein inhibited status epilepticus induced by microinjection of kainic acid into the right amygdala (FIG. 15). […] The inhibition of status epilepticus was also dose dependent. […] Whereas a dose of 1 mg/kg of Tat-pTrkBY816 was ineffective, doses of 3 mg/kg and 10 mg/kg effected a striking inhibition such that status epilepticus was prevented in at least 70% of animals (FIG. 17, top). By contrast, kainic acid induced status epilepticus in all animals pretreated with the control scr-Tat-pTrkBY816 regardless of dose (FIG. 17, top).
Surgery and microinfusion studies provided in Examples 10-14 were performed as described here. Surgery and microinfusion of KA into right amygdala of adult mice was performed as previously described (Liu, G. et al., (2013) Neuron 79:31-38). Briefly, mice were anesthetized with pentobarbital (60 mg/kg, intraperitoneally [i.p.]) and placed in a stereotaxic frame. A guide cannula was stereotactically placed above the right amygdala (coordinates from bregma: AP=−1.2 mm; ML=3.0 mm). A bipolar electrode was placed in the left dorsal hippocampus (coordinates from bregma: AP=−2.0 mm; ML=−1.6 mm; DV=−1.5 mm). A ground electrode connected to a screw was placed in the skull above the cerebellum. After a postoperative recovery period of 7 days, the animal was gently restrained and an infusion cannula was inserted into the right amygdala through the guide cannula at the depth of 3.7 mm below dura. Either KA (0.3 μg in 0.5 μl PBS) or vehicle control (0.5 μl of PBS) was infused into the right basolateral amygdala at the rate of 0.11 μl per minute. The infusion cannula was left in the right amygdala for two additional minutes before being withdrawn from the guide cannula. Animals were housed individually for time locked electroencephalogram (EEG) telemetry and video monitoring with food and water ad libitum.
Emergence of SE was typically evident in EEG recordings 5-10 min after KA infusion. The behavioral seizures associated with electrographic seizures typically consisted of immobility, followed by facial automatisms, unilateral or bilateral forelimb clonus, and whole body clonus. Tonic-clonic seizures with loss of posture and jumping also occurred during the seizures (Mouri, G. et al., (2008) Brain Res 1213:140-151). For experiments in which p816 or Scr was administered prior to SE, mice were monitored for 45 min following KA infusion. […]

[2] = system: ERK; test: BDNF-mediated increase of p-ERK in cultured cortical neurons (western blot); assay type: cell-based, rat; conditions: 10 μM, 10-120 min pretreatment
[3] = system: Akt; test: BDNF-mediated increase of p-Akt in cultured cortical neurons (western blot); assay type: cell-based, rat; conditions: 10 μM, 10-120 min pretreatment
[4] = system: anxiety-like behavior; test: Light/dark box test of anxiety-like behavior 8 weeks after SE; assay type: in vivo, mouse; conditions: 8 weeks post-SE; Scr vs PBS controls, pY816 vs Scr
Description: It was therefore tested whether this SE-induced behavioral abnormality could also be prevented by treatment with pY816 initiated following SE. To address this question, following completion of video-EEG recording during days 29-42, anxiety-like behavior was assessed using the light-dark emergence test (Bourin, M. et al., (2003) Eur J Pharmacol 463:55-65).
Specifically, a plexiglas arena (40×40×40 cm) was placed in a room with homogenous illumination (˜300 lux). The arena was subdivided into sixteen 10×10 cm squares by lines marked on the floor. Each mouse was placed in the center of the open field and allowed to explore freely the apparatus for 5 minutes. The apparatus ([…]) consisted of two acrylic compartments. The dark compartment (30×40 cm) and light compartment (40×40×40 cm, brightly illuminated at 600 lux) were separated by a divider with a 5.5×5.5 cm opening at floor level. Mice were placed into the dark side and allowed to move freely between the two chambers with the door open for 5 minutes. During behavior tests, a video camera was mounted directly above the arena to monitor animal activity and movement. An investigator unaware of the treatment reviewed the video and recorded: 1) line crossing (frequency of crossing grid lines with all four paws) and the frequency of rearing (standing on hind legs or leaning against the walls of the arena) to assess locomotor activity in open field test; and 2) the latency to first entry into lighted compartment (entering the lighted side with all four paws) and the total time spent on the lighted side to assess anxiety-like behavior in light/dark box test.
Following completion of video-EEG monitoring for recurrent seizures, all KA-infused mice were subjected to open field and light/dark box tests at 8 weeks post-SE. Control animals underwent infusion of PBS into the amygdala and subsequently i.v. infusion of Scr or pY816 peptide and were tested 8 weeks after PBS infusion. No differences were found between Scr and pY816 treated control animals and these groups were combined for analyses.

With “YGRKKRRQRRR-LQNLAKASPVpYLDI (YGRKKRRQRRRLQNLAKASPV[pY]LDI) [pY816]” the “inhibition of status epilepticus” value ([1]; 1 mg/kg i.v., six hours prior to KA) was “ineffective”, the “animals in which status epilepticus was prevented” value ([1]; 3 mg/kg i.v., six hours prior to KA) was “at least 70%” and the “earliest time at which inhibitory effects were evident following i.v. infusion” value ([1]; 10 mg/kg i.v.) was 10 min. For the same substance, the “inhibition of status epilepticus remitted by” value ([1]; 10 mg/kg i.v.) was no more than 72 h, the “peak of inhibition of status epilepticus (pretreatment interval)” value ([1]; 10 mg/kg i.v.) was 0.5 h and the “persistence of inhibition of status epilepticus” value ([1]; 10 mg/kg i.v.) was 24 h. The “return of seizure inhibition to control levels by” value ([1]; 10 mg/kg i.v.) was no more than 72 h, the “inhibition of status epilepticus (time course)” value ([1]; 10 mg/kg i.v., 0.16-72 hr prior to KA) was “striking time dependent inhibition of status epilepticus” and the “status epilepticus at 0.5 hour pretreatment” value ([1]; 10 mg/kg i.v., 0.5 hour prior to KA) was “eliminated altogether”. The “maximal inhibition of convulsive motor and electrographic seizures” value ([1]; 10 mg/kg i.v., 6 hr prior to KA) was 90%, the “latency to the onset of status epilepticus” value ([1]; 10 mg/kg i.v., compared to scrambled control peptide 10 mg/kg) was “prolonged” and the “animals in which status epilepticus was prevented” value ([1]; 10 mg/kg i.v., six hours prior to KA) was “at least 70%”. The “increase of latency to onset of status epilepticus” value ([1]; 10 mg/kg i.v., six hours prior to KA, compared to Scr-phospho-Tat-pTrkBY816) was 3 fold, the “inhibition of convulsive motor and electrographic seizures persisting for 24 hr” value ([1]; 10 mg/kg i.v., up to 24 hr prior to KA) was 80-90% and the “onset of inhibition of status epilepticus (pretreatment interval)” value ([1]; 10 mg/kg i.v., earliest time tested) was 0.16 h. The “latency to onset of behavioral status epilepticus (dose response)” value ([1]; 1, 3, 10 mg/kg i.v., six hours prior to KA) was “increased the latency to onset of behavioral status epilepticus in a dose dependent fashion”, the “BDNF-mediated increase of the p-ERK/ERK ratio (quantified, FIG. 12)” value [2] was “Neither the Phospho-Tat-TrkBY816 nor the Scr-phospho-Tat-TrkBY816 peptide inhibited” and the “BDNF-mediated increase of the p-Akt/Akt ratio (quantified, FIG. 11)” value [3] was “Neither the Phospho-Tat-TrkBY816 nor the Scr-phospho-Tat-TrkBY816 peptide inhibited”. The “latency to enter the lighted compartment” value [4] was “significantly reduced latency” and the “time spent in lighted compartment” value [4] was “spent increased time”.
For “YGRKKRRQRRRLVApYQLKIAPNDLS (YGRKKRRQRRRLVA[pY]QLKIAPNDLS) [Scr, reference compound]”, the “animals in which kainic acid induced status epilepticus” value ([1]; 10 mg/kg i.v. at different times prior to KA) was 23 of 24, the “KA-induced seizures following i.v. infusion of peptide” value ([1]; i.v. prior to KA infusion into amygdala) was “prolonged convulsive motor and electrographic seizures” and the “animals in which kainic acid induced status epilepticus” value ([1]; regardless of dose (1, 3, 10 mg/kg), six hours prior to KA) was “all animals”. For the same substance, the “BDNF-mediated increase of the p-ERK/ERK ratio (quantified, FIG. 12)” value [2] was “Neither the Phospho-Tat-TrkBY816 nor the Scr-phospho-Tat-TrkBY816 peptide inhibited”, the “BDNF-mediated increase of the p-Akt/Akt ratio (quantified, FIG. 11)” value [3] was “Neither the Phospho-Tat-TrkBY816 nor the Scr-phospho-Tat-TrkBY816 peptide inhibited” and the “latency to enter the lighted compartment” value [4] was “prolonged latency”. For the same substance, the “time spent in lighted compartment” value [4] was “spent less time”.
